“Also recorded” adds a separate entry of the source.
System: morphine-dependent rat model of vasomotor instability
Assay: Morphine-dependent naloxone-induced flush model (tail skin temperature)
Type: in vivo
Details: for effect on basal tail skin temperature prior to administration of naloxone: ovariectomized morphine-dependent rats, MDL-100907 0.3, 1 mg/kg, DOI 1 mg/kg, FIG. 1
[1] = Example 2, sc 20 min prior to naloxone, 5HT2c agonist 0.1, 3.0 mg/kg, 5HT2c antagonist 0.1, 1.0 mg/kg, FIG. 2
[2] = Example 1, sc 20 min prior to naloxone
[3] = Example 3, fluoxetine 10 mg/kg sc 1 h prior and/or WAY-100635 1 mg/kg sc 20 min prior to naloxone, FIG. 3

Cc1cc2c(cc1Cl)N(C(=O)Nc1ccc(Oc3cccnc3C)nc1)CC2 [6-Chloro-5-methyl-1-[[2-[(2-methyl3-pyridyl)oxy]-5-pyridyl]carbamoyl]indoline]
abatement of naloxone-induced flush (changes in TST, Δ°C, mean, over time) [1]: did not significantly abate naloxone-induced flush

c1cc2c3c(c1)[C@H]1CCC[C@H]1N3CCNC2 [(7bR, 10aR)-1,2,3,4,8,9,10,10a-octahydro-7bH-cyclopenta[b][1,4]diazepino[6,7,1-hi]indole]
abatement of naloxone-induced flush (changes in TST, Δ°C, mean, over time) [1]: did not significantly abate naloxone-induced flush

COc1cc(CC(C)N)c(OC)cc1I.Cl (stereo not shown) [DOI, 1-(2,5-dimethoxy-4-iodophenyl)-2-aminopropane hydrochloride]
abatement of naloxone-induced flush (change in TST) (Example 1, DOI 1 mg/kg sc 20 min prior to naloxone, FIG. 1B, hydrochloride): preventing a naloxone-induced increase in tail-skin temperature; also recorded: significantly abated the naloxone-induced flush | effect on basal tail skin temperature prior to administration of naloxone [2]: without affecting basal tail skin temperature

COc1cccc([C@H](O)C2CCN(CCc3ccc(F)cc3)CC2)c1OC [MDL-100907]
effect on basal tail skin temperature prior to administration of naloxone [2]: significantly induced an increase in tail skin temperature | effect on the combination drug abatement of the naloxone-induced flush at maximal flush (Example 5, MDL-100907 0.01 or 0.1 mg/kg 55 min prior to naloxone, then fluoxetine 10 mg/kg + WAY-100635 0.01 mg/kg, 15 min post-naloxone, FIG. 5A): dose-dependently reversed | effect on fluoxetine (10 mg/kg) action on naloxone-induced flush at maximal flush (Example 5, MDL-100907 0.01 or 0.1 mg/kg 55 min prior to naloxone, then fluoxetine 10 mg/kg, 15 min post-naloxone, FIG. 5B): potentiated | effect on fluoxetine (30 mg/kg) abatement of naloxone-induced hot flush (Example 5, MDL-100907 0.01 or 0.1 mg/kg prior to fluoxetine 30 mg/kg, FIG. 5C): potentiated the abatement effect

COc1ccccc1N1CCN(CCN(C(=O)C2CCCCC2)c2ccccn2)CC1 [WAY-100635, N-[2-[4-(2-Methoxyphenyl)-1-piperazinyl]ethyl]-N-2-pyridinylcyclohexanecarboxamide]
abatement of naloxone-induced flush (changes in TST, Δ°C, mean, over time) [3]: did not significantly abate naloxone-induced flush | ED50 (Rattus norvegicus, 0.25 h, Example 4, WAY-100635 0.01, 0.1 or 1.0 mg/kg sc combined with fluoxetine 10 mg/kg, 15 min post-naloxone, FIG. 4B, read-out: ED50 value, abatement of naloxone-induced flush at maximal flush): 0.01 ± 0.009 mg/kg

CNCCC(Oc1ccc(C(F)(F)F)cc1)c1ccccc1 (stereo not shown) [fluoxetine]
abatement of naloxone-induced flush (changes in TST, Δ°C, mean, over time) [3]: did not significantly abate naloxone-induced flush | abatement of naloxone-induced flush by fluoxetine alone (Example 5, fluoxetine 10 mg/kg sc): ineffective | abatement of naloxone-induced hot flush by fluoxetine alone (Example 5, fluoxetine 30 mg/kg sc): abates a naloxone-induced hot flush

From patent US20040063721A1, “Agonism of the 5HT2A receptor for treatment of thermoregulatory dysfunction” (Wyeth, priority 2002, published 2004)
